The source of these data is patent US9415055B2, “Cyclic amines” (H. Lundbeck A/S, priority 2012, dated 2016).

SMILES strings stand for the structures.

In this assay the target is P2X7 receptor (Homo sapiens (Human), UniProt Q99572). The experiment in a line: P2X7 FLIPR assay: antagonism of BzATP response in 293 HEK cells stably expressing P2X7 receptor. The note with it: FLIPR fluorescence (Fluo-4), agonist BzATP, 293 HEK cells stably transfected with P2X7 receptor. Type of assay: cell-based. The method, boiled down: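 Antagonist IC50 derived from FLIPR Tetra Fluo-4 calcium signal evoked by BzATP. Compound pre-incubation was 30 min at room temperature on P2X7-expressing HEK293 cells, seeded 24 h before in low-serum medium and dye-loaded 30 min at 37 °C then 30 min at RT.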
Chain of P2X7 receptor (Q99572 whole entry): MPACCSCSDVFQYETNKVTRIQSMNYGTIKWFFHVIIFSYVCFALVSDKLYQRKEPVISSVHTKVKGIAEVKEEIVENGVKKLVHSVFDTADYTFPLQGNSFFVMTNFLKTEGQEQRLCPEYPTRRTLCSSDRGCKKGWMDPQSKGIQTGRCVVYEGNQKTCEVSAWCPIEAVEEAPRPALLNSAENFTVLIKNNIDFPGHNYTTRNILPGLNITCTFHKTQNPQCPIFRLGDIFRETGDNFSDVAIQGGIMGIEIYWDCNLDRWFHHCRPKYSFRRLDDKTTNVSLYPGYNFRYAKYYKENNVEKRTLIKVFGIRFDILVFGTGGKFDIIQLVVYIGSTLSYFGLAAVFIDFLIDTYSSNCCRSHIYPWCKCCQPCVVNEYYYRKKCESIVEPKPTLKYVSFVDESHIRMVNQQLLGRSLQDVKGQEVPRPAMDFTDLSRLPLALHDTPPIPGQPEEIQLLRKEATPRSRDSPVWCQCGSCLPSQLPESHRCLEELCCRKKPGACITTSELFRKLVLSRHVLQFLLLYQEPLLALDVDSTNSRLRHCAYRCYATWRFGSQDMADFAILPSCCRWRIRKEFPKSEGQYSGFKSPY
Turning to `O=C(NCC(c1cnc(C(F)(F)F)nc1)N1CCC(F)(F)CC1)c1ccc(Cl)cc1Cl` (single isomer, unassigned; (-)) [(−)2,4-dichloro-N-[2-(4,4-difluoro-1-piperidyl)-2-[2-(triflu] [(−)2,4-dichloro-N-(2-(4,4-difluoropiperidin-1-yl)-2-(2-(trifluoromethyl)pyrimidin-5-yl)ethyl)benzamide], the IC50 was 6.4 nM. In other words, the single-digit nanomolar range. The figure for `O=C(NCC(c1ccc(C(F)(F)F)nc1)N1CCOCC1)c1cccc(C(F)(F)F)c1Cl` (single isomer, unassigned; (-)) [(−)2-chloro-N-[2-morpholino-2-[6-(trifluoromethyl)-3-pyridyl] [(−)2-Chloro-N-[2-morpholino-2-[6-(trifluoromethyl)-3-pyridyl]ethyl]-3-(trifluoromethyl)benzamide] is 12 nM.

On to `O=C(NCC(c1cnc(C(F)(F)F)nc1)N1CCOCC1)c1cccc(Cl)c1Cl` (stereo not shown) [2,3-dichloro-N-[2-morpholino-2-[2-(trifluoromethyl)pyrimidin] [2,3-Dichloro-N-[2-morpholino-2-[2-(trifluoromethyl)pyrimidin-5-yl]ethyl]benzamide], for which the IC50 was 8.2 nM.

In turn, `O=C(NCC(c1cnc(C(F)F)nc1)N1CCOCC1)c1cccc(Cl)c1Cl` (single isomer, unassigned; (-)) [(−)2,3-dichloro-N-[2-[2-(difluoromethyl)pyrimidin-5-yl]-2-mo] [(−)2,3-dichloro-N-(2-(2-(difluoromethyl)pyrimidin-5-yl)-2-morpholinoethyl)benzamide] showed an IC50 of 9.6 nM. The compound `Cc1ncc(C(CNC(=O)c2ccccc2Cl)N2CCCC(F)(F)C2)cn1` (single isomer, unassigned; (+)) [(+)2-chloro-N-[2-(3,3-difluoro-1-piperidyl)-2-(2-methylpyrim] [(+)2-chloro-N-(2-(3,3-difluoropiperidin-1-yl)-2-(2-methylpyrimidin-5-A)ethyl)benzamide] registered an IC50 of 85 nM. The value for `Cc1ncc(C(CNC(=O)c2cccc(F)c2Cl)N2CCCC(F)(F)C2)cn1` (single isomer, unassigned; (-)) [(−)2-chloro-N-[2-(3,3-difluoro-1-piperidyl)-2-(2-methylpyrim] [(−)2-chloro-3-fluoro-N-(2-(3,3-difluoropiperidin-1-yl)-2-(2-methylpyrimidin-5-yl)ethyl)benzamide] was 41 nM. The value for `Cc1ncc(C(CNC(=O)c2cccc(Cl)c2Cl)N2CCCOCC2)cn1` (stereo not shown) [2,3-dichloro-N-(2-(2-methylpyrimidin-5-yl)-2-(1,4-oxazepan-4-yl)ethyl)benzamide] was 29 nM; that for `Cc1ncc(C(CNC(=O)c2cccc(Cl)c2Cl)N2CCOCC2)cn1` (stereo not shown) [2,3-dichloro-N-[2-(2-methylpyrimidin-5-yl)-2-morpholino-ethy] [2,3-Dichloro-N-[2-(2-methylpyrimidin-5-yl)-2-motpholino-ethyl]benzamide] was 21 nM; that for `Cc1ncc(C(CNC(=O)c2cccc(Cl)c2Cl)N2CCCCC2)cn1` (single isomer, unassigned; (+)) [(+)2,3-dichloro-N-[2-(2-methylpyrimidin-5-yl)-2-(1-piperidyl] [(+2,3-dichloro-N-(2-(2-methylpyrimidin-5-yl)-2-(piperidin-1-yl)ethyl)benzamide] was 8.9 nM.

Take `O=C(NCC(c1cnc(C(F)(F)F)nc1)N1CCOCC1)c1cccc(C(F)(F)F)c1Cl` (single isomer, unassigned; (-)) [(−)2-chloro-N-[2-morpholino-2-[2-(trifluoromethyl)pyrimidin-] [(−)2-Chloro-N-[2-morpholino-2-[2-(trifluoromethyl)pyrimidin-5-yl]ethyl]-3-(trifluoromethyl)benzamide]: the 50% inhibitory concentration (IC50) is 9.9 nM. The IC50 values of the last two compounds are within 1.5-fold of each other. The figure for `Cc1ncc(C(CNC(=O)c2c(F)cccc2Cl)N2CCOCC2)cn1` (stereo not shown) [2-chloro-6-fluoro-N-(2-(2-methylpyrimidin-5-yl)-2-morpholinoethyl)benzamide] is 590 nM. As for `Cc1ncc(C(CNC(=O)c2ccc(Cl)cc2Cl)N2CCC(=O)CC2)cn1` (stereo not shown) [2,4-dichloro-N-(2-(2-methylpyrimidin-5-yl)-2-(-1-yl)ethyl)benzamide], the IC50 turned out to be 970 nM. In turn, `O=C(NCC(c1cnc(C(F)(F)F)nc1)N1CCC(F)(F)CC1)c1c(F)cc(Cl)cc1Cl` (single isomer, unassigned; (+)) [(+)2,4-dichloro-N-[2-(4,4-difluoro-1-piperidyl)-2-[2-(triflu] [(+)2,4-dichloro-6-fluoro-N-(2-(4,4-difluoropiperidin-1-yl)-2-(2-(trifluoromethyl)pyrimidin-5-yl)ethyl)benzamide] gave a half-inhibitory concentration (IC50) of 4.7 nM. The value for `Cc1ccc(C(CNC(=O)c2c(F)cccc2Cl)N2CCC(F)(F)CC2)cn1` (single isomer, unassigned; (+)) [(+)2-chloro-N-[2-(4,4-difluoro-1-piperidyl)-2-(6-methyl-3-py] [(+)2-chloro-N-(2-(4,4-difluoropiperidin-1-yl)-2-(6-methylpyridin-3-yl)ethyl)-6-fluorobenzamide] was 110 nM; that for `O=C(NCC(c1cnc(C2CC2)nc1)N1CCC(F)(F)CC1)c1c(F)cccc1Cl` (single isomer, unassigned; (-)) [(−)2-chloro-N-[2-(2-cyclopropylpyrimidin-5-yl)-2-(4,4-difluo] [(−)2-chloro-6-fluoro-N-(2-(2-cyclopropylpyrimidin-5-yl)-2-(4,4-difluoropiperidin-1-yl)ethyl)benzamide] was 11 nM; that for `COc1ccc(C(CNC(=O)c2cccc(Cl)c2Cl)N2CCCCC2)cc1` (stereo not shown) [2,3-Dichloro-N-[2-(4-methoxy-phenyl)-2-piperidin-1-yl-ethyl]-benzamide] was 350 nM. The figure for `O=C(NCC(c1cnc(C(F)F)nc1)N1CCOCC1)c1cccc(F)c1Cl` (single isomer, unassigned; (-)) [(−)2-chloro-N-[2-[2-(difluoromethyl)pyrimidin-5-yl]-2-morpho] [(−)2-chloro-3-fluoro-N-(2-(2-(difluoromethyl)pyrimidin-5-yl)-2-morpholinoethyl)benzamide] is 38 nM; for `O=C(NCC(c1ccc(C(F)(F)F)nc1)N1CCOCC1)c1c(F)cccc1Cl` (single isomer, unassigned; (+)) [(+)2-chloro-6-fluoro-N-[2-morpholino-2-[6-(trifluoromethyl)-] [(+)2-chloro-6-fluoro-N-(2-morpholino-2-(6-(trifluoromethyl)pyridin-3-yl)ethyl)benzamide] it is 32 nM. Turning to `O=C(NCC(c1ccc(C(F)(F)F)nc1)N1CCOCC1)c1cccc(Cl)c1Cl` (single isomer, unassigned; (-)) [(−)2,3-dichloro-N-[2-morpholino-2-[6-(trifluoromethyl)-3-pyr] [(−)2,3-Dichloro-N-[2-morpholino-2-[6-(trifluoromethyl)-3-pyridyl]ethyl]benzamide], the half-inhibitory concentration (IC50) is 2 nM.

`O=C(NCC(c1cnc(C2CC2)nc1)N1CCC(F)(F)CC1)c1c(F)cccc1Cl` (single isomer, unassigned; (+)) [(+)2-chloro-N-[2-(2-cyclopropylpyrimidin-5-yl)-2-(4,4-difluo] [(+)2-chloro-6-fluoro-N-(2-(2-cyclopropylpyrimidin-5-yl)-2-(4,4-difluoropiperidin-1-yl)ethyl)benzamide] came in with an IC50 of 9.9 nM.

For the compound `O=C(NCC(c1cnc(C(F)(F)F)nc1)N1CCC(F)(F)CC1)c1c(F)cccc1Cl` (single isomer, unassigned; (+)) [(+)2-chloro-N-[2-(4,4-difluoro-1-piperidyl)-2-[2-(trifluorom] [(+)2-chloro-6-fluoro-N-(2-(4,4-difluoropiperidin-1-yl)-2-(2-(trifluoromethyl)pyrimidin-5-yl)ethyl)benzamide], the IC50 was found to be 8.3 nM. The figure for `O=C(NCC(c1ccc(F)cc1)N1CCC(F)(F)CC1)c1cccc(Cl)c1Cl` (stereo not shown) [2,3-Dichloro-N-[2-(4,4-difluoro-piperidin-1-yl)-2-(4-fluoro-phenyl)-ethyl]-benzamide] is 0.33 nM; for `O=C(NCC(c1cnc(C(F)(F)F)nc1)N1CCOCC1)c1ccc(Cl)cc1Cl` (stereo not shown) [2,4-dichloro-N-(2-morpholino-2-(2-(trifluoromethyl)pyrimidin-5-yl)ethyl)benzamide] it is 12 nM; for `O=C(NCC(c1ccc(C(F)(F)F)nc1)N1CCOCC1)c1c(F)cccc1Cl` (single isomer, unassigned; (-)) [(−)2-chloro-6-fluoro-N-(2-morpholino-2-(6-(trifluoromethyl)p] [(−)2-chloro-6-fluoro-N-(2-morpholino-2-(6-(trifluoromethyl)pyridin-3-yl)ethyl)benzamide] it is 6.1 nM. `CS(=O)(=O)c1ccc(Cl)c(C(=O)NCC(c2ccc(C(F)(F)F)nc2)N2CCOCC2)c1` (single isomer, unassigned; (+)) [(+)2-chloro-5-methylsulfonyl-N-[2-morpholino-2-[6-(trifluoro] [(+)2-chloro-5-(methylsulfonyl)-N-(2-morpholino-2-(6-(trifluoromethyl)pyridin-3-yl)ethyl)benzamide] had an IC50 of 71 nM. `Cc1cccc(C(=O)NCC(c2cccnc2)N2CCOCC2)c1C` (stereo not shown) [2,3-Dimethyl-N-(2-morpholin-4-yl-2-pyridin-3-yl-ethyl)-benzamide]: the IC50 turned out to be 2700 nM. As for `Cc1ncc(C(CNC(=O)c2cccc(OC(F)(F)F)c2Cl)N2CCC(F)(F)CC2)cn1` (single isomer, unassigned; (+)) [(+)2-chloro-N-[2-(4,4-difluoro-1-piperidyl)-2-(2-methylpyrim] [(+)2-chloro-N-(2-(4,4-difluoropiperidin-1-yl)-2-(2-methylpyrimidin-5-yl)ethyl)-3-(trifluoromethoxy)benzamide], the IC50 was determined as 21 nM. For the compound `CN(C)c1ncc(C(CNC(=O)c2cccc(Cl)c2Cl)N2CCC(F)(F)CC2)cn1` (stereo not shown) [2,3-dichloro-N-(2-(4,4-difluoropiperidin-1-yl)-2-(2-(dimethylamino)pyrimidin-5-yl)ethyl)benzamide], the IC50 was determined as 6.6 nM.
